Data reported in article PMC12027149 (International Journal of Molecular Sciences, 2025).
Values joined by “and” are separate entries in the source; they are usually repeats but may differ in a detail not shown here. Equal values may be shown once.

Test system: not listed separately
Test: MTT cytotoxicity assay on differentiated SH-SY5Y cells
Assay type: cell-based, human
Details: human, differentiated SH-SY5Y, 0.05–5 mM, MTT reduction assay, Hill fit, read-out: LC50
Description: (§1) The SH–SY5Y cell line (DSMZ code: ACC 209) was supplied by the German Collection of Microorganisms and the Cell Culture GmbH (DSMZ) biobank and was cultured according to the supplier’s information. Cells were grown in DMEM:F12 (Dulbecco’s Modified Eagle’s Medium/F12), supplemented with 10% fetal bovine serum (FBS) and 1% antibiotic–antimycotic in a humidified atmosphere with 5% CO2 at 37 °C. Subculture was performed according to biobank instructions when the cultures reached 80–85% of confluence.
(§2) SH-SY5Y cells were trypsinized (trypsin/EDTA; 0.25%) and the cell suspension was seeded in 96-well plates at a density of 2 × 10^4 cells/well and incubated until reaching 80-85% confluence. Cells were differentiated to obtain a dopaminergic neuronal phenotype according to Ferreira et al. with slight modifications (Figure 10). To ensure reproducibility and optimal neuronal differentiation, cells were used between passages (15–25). Briefly, cells were seeded in complete DMEM:F12 medium containing 10 µM retinoic acid (RA) and 2.5% fetal bovine serum (FBS) and maintained for 4 days, with the medium changed on day 2. After this time, the medium was replaced by DMEM:F12 supplemented with 10 µM RA, 80 nM 12-O-tetradecanoylphorbol-13-acetate (TPA), and 2.5% FBS, and the cells were maintained for an additional 4 days (with the medium changed at day 6). The cytotoxicity assay was performed on day 8.
(§3) The SH-SY5Y cells’ viability was evaluated after exposure for 24 h to […]. The 3-(4,5-dimethylthiazol-2-yl) − 2,5-diphenyltetrazolium bromide (MTT) colorimetric assay was performed following the methodology described by Joana Silva et al.. The experimental dose–response results were fitted to the Hill’s sigmoidal non-linear regression model. For each cathinone, the LC50 values (cathinone concentration showing 50% lethality) and their confidence interval at the 95% confidence level ([CI]) were determined. The Hill slope, also known as the Hill coefficient, which describes the steepness of a dose–response curve, and the minimum observable adverse effect concentration (LOAEL) were also determined for all cathinones.

SMILES | CC50 at 24 h
CNC(C)C(=O)c1cccc(Cl)c1 (racemic) [3-CMC (2), (R,S)-1-(3-chlorophenyl)-2-(methylamino)propan-1-one] | 2300 µM
CC(C(=O)c1ccccc1Cl)N(C)C (racemic) [2-CDC (12), (R,S)-1-(2-chlorophenyl)-2-(dimethylamino)propan-1-one] | 1300 µM
CNC(C)C(=O)c1ccccc1Cl (racemic) [2-CMC (1), (R,S)-1-(2-chlorophenyl)-2-(methylamino)propan-1-one] | 1700 µM
CCN(CC)C(C)C(=O)c1ccc(Cl)cc1 (racemic) [4-Cl-DEC (16), (R,S)-1-(4-chlorophenyl)-2-(diethylamino)propan-1-one] | 1000 µM
CCNC(C)C(=O)c1cccc(Cl)c1 (racemic) [3-CEC (5), (R,S)-1-(3-chlorophenyl)-2-(ethylamino)propan-1-one] | 1300 µM
CCNC(C)C(=O)c1ccc(Cl)cc1 (racemic) [4-CEC (6), (R,S)-1-(4-chlorophenyl)-2-(ethylamino)propan-1-one] | 1300 µM
CC(C(=O)c1ccc(Cl)cc1)N1CCCC1 (racemic) [4-Cl-PPP (11), (R,S)-1-(4-chlorophenyl)-2-(pyrrolidine-1-yl)propan-1-one] | 1800 µM
CC(C)NC(C)C(=O)c1cccc(Cl)c1 (racemic) [3-CIC (17), (R,S)-1-(3-chlorophenyl)-2-(isopropylamino)propan-1-one] | 1600 µM
CC(NC(C)(C)C)C(=O)c1cccc(Cl)c1 (racemic) [3-Cl-TBC (19), (R,S)-2-(tert-butylamino)-1-(3-chlorophenyl)propan-1-one] | 1000 µM
CC(C(=O)c1cccc(Cl)c1)N(C)C (racemic) [3-CDC (13), (R,S)-1-(3-chlorophenyl)-2-(dimethylamino)propan-1-one] | 1800 µM

Test system: differentiated SH-SY5Y cells
Test: as above
Assay type: cell-based, human
Details: lowest observed adverse effect level, differentiated SH-SY5Y, 24 h, MTT
Description: as §1, §2, §3

SMILES | LOAEL
CNC(C)C(=O)c1cccc(Cl)c1 (racemic) [3-CMC (2), (R,S)-1-(3-chlorophenyl)-2-(methylamino)propan-1-one] | 1 mM and 1.0 mM
CC(C(=O)c1ccccc1Cl)N(C)C (racemic) [2-CDC (12), (R,S)-1-(2-chlorophenyl)-2-(dimethylamino)propan-1-one] | 1 mM and 1.0 mM
CNC(C)C(=O)c1ccccc1Cl (racemic) [2-CMC (1), (R,S)-1-(2-chlorophenyl)-2-(methylamino)propan-1-one] | 1 mM and 1.0 mM
CCN(CC)C(C)C(=O)c1ccc(Cl)cc1 (racemic) [4-Cl-DEC (16), (R,S)-1-(4-chlorophenyl)-2-(diethylamino)propan-1-one] | 1 mM and 1.0 mM
CCNC(C)C(=O)c1cccc(Cl)c1 (racemic) [3-CEC (5), (R,S)-1-(3-chlorophenyl)-2-(ethylamino)propan-1-one] | 0.5 mM
CCNC(C)C(=O)c1ccc(Cl)cc1 (racemic) [4-CEC (6), (R,S)-1-(4-chlorophenyl)-2-(ethylamino)propan-1-one] | 0.1 mM
CC(C(=O)c1ccc(Cl)cc1)N1CCCC1 (racemic) [4-Cl-PPP (11), (R,S)-1-(4-chlorophenyl)-2-(pyrrolidine-1-yl)propan-1-one] | 0.5 mM
CC(C)NC(C)C(=O)c1cccc(Cl)c1 (racemic) [3-CIC (17), (R,S)-1-(3-chlorophenyl)-2-(isopropylamino)propan-1-one] | 1 mM and 1.0 mM
CC(NC(C)(C)C)C(=O)c1cccc(Cl)c1 (racemic) [3-Cl-TBC (19), (R,S)-2-(tert-butylamino)-1-(3-chlorophenyl)propan-1-one] | 0.5 mM
CC(C(=O)c1cccc(Cl)c1)N(C)C (racemic) [3-CDC (13), (R,S)-1-(3-chlorophenyl)-2-(dimethylamino)propan-1-one] | 1 mM and 1.0 mM

Target: T1, Acetylcholinesterase (AChE, EC 3.1.1.7) (Electrophorus electricus, UniProt O42275)
T1 construct: purchased Sigma-Aldrich
Test: Acetylcholinesterase inhibition, modified Ellman colorimetric method
Assay type: biochemical
Details: AChE inhibition dose–response curve
Description: Acetylcholinesterase (AChE, EC 3.1.1.7) enzymatic activity was assessed using a modified version of Ellman’s colorimetric method, as described by Falé et al.. In this assay, a mixture of 325 μL of 50 mM Tris-HCl buffer (pH 8), 100 μL of a cathinone solution, and 25 μL of AChE (0.1 U/mL in 50 mM Tris–HCl buffer pH 8) were incubated. After a 15 min incubation period, 75 μL of AChI (0.33 mg/mL) was added to 475 μL of DTNB (dithiobis (2-nitrobenzoic acid)) (1.2 mg/mL in Tris–HCl buffer (pH 8) containing 0.1 M NaCl and 0.02 M MgCl2). A control reaction, representing 100% activity, was performed using the same volume of water instead of the cathinone solution. The initial velocity of the enzymatic reaction was measured at 405 nm for 5 min, with all assays carried out in duplicate. The percentage of AChE activity inhibition for different concentrations of cathinones [0.03–2 mM] was determined as the ratio of the initial velocity in the cathinone presence to the initial velocity of the control reaction. Experimental results were fitted to Hill’s sigmoidal dose–response non-linear regression model to determine IC50 values (cathinone concentration showing 50% inhibition), along with their confidence interval at the 95% confidence level ([CI]). The Hill slope coefficients that provide the steepest value of the slope of the dose–response curve and the minimum observable adverse effect concentration (LOAEL) for all cathinones were also determined.

T1 sequence (O42275 24-633): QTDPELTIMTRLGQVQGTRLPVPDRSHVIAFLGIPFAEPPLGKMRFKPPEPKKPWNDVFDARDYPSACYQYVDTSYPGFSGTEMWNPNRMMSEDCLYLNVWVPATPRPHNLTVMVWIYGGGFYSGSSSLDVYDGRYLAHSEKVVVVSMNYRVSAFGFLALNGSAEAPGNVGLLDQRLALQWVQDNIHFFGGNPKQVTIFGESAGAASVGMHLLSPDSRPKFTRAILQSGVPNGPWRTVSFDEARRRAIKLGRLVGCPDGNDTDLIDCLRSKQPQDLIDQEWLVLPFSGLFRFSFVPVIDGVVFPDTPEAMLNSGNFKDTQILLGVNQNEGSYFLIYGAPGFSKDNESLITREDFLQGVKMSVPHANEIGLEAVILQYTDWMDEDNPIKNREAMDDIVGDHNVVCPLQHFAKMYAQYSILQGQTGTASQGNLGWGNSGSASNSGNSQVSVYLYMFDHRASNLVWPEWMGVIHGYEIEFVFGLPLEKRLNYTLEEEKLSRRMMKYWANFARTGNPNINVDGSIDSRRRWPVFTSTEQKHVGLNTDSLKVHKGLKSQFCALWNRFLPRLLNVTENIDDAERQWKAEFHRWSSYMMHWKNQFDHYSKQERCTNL

SMILES | Hillslope
CNC(C)C(=O)c1cccc(Cl)c1 (racemic) [3-CMC (2), (R,S)-1-(3-chlorophenyl)-2-(methylamino)propan-1-one] | 3.7
CC(C(=O)c1ccccc1Cl)N(C)C (racemic) [2-CDC (12), (R,S)-1-(2-chlorophenyl)-2-(dimethylamino)propan-1-one] | 2.5
CNC(C)C(=O)c1ccccc1Cl (racemic) [2-CMC (1), (R,S)-1-(2-chlorophenyl)-2-(methylamino)propan-1-one] | 2.5
CCN(CC)C(C)C(=O)c1ccc(Cl)cc1 (racemic) [4-Cl-DEC (16), (R,S)-1-(4-chlorophenyl)-2-(diethylamino)propan-1-one] | 0.8
CCNC(C)C(=O)c1cccc(Cl)c1 (racemic) [3-CEC (5), (R,S)-1-(3-chlorophenyl)-2-(ethylamino)propan-1-one] | 1.3
CCNC(C)C(=O)c1ccc(Cl)cc1 (racemic) [4-CEC (6), (R,S)-1-(4-chlorophenyl)-2-(ethylamino)propan-1-one] | 1.2
CC(C(=O)c1ccc(Cl)cc1)N1CCCC1 (racemic) [4-Cl-PPP (11), (R,S)-1-(4-chlorophenyl)-2-(pyrrolidine-1-yl)propan-1-one] | 1.1
CC(C)NC(C)C(=O)c1cccc(Cl)c1 (racemic) [3-CIC (17), (R,S)-1-(3-chlorophenyl)-2-(isopropylamino)propan-1-one] | 0.8
CC(NC(C)(C)C)C(=O)c1cccc(Cl)c1 (racemic) [3-Cl-TBC (19), (R,S)-2-(tert-butylamino)-1-(3-chlorophenyl)propan-1-one] | 0.9
CC(C(=O)c1cccc(Cl)c1)N(C)C (racemic) [3-CDC (13), (R,S)-1-(3-chlorophenyl)-2-(dimethylamino)propan-1-one] | 1.2

Same assay, conditions: AChE inhibition, 0.03–2 mM, Ellman assay, Hill fit; read-out: IC50

SMILES | IC50
CC(NC(C)(C)C)C(=O)c1cccc(Cl)c1 (racemic) [3-Cl-TBC (19), (R,S)-2-(tert-butylamino)-1-(3-chlorophenyl)propan-1-one] | 1000 µM

Same assay, conditions: AChE inhibition, Ellman assay

SMILES | LOAEL
CNC(C)C(=O)c1cccc(Cl)c1 (racemic) [3-CMC (2), (R,S)-1-(3-chlorophenyl)-2-(methylamino)propan-1-one] | 0.500 mM
CC(C(=O)c1ccccc1Cl)N(C)C (racemic) [2-CDC (12), (R,S)-1-(2-chlorophenyl)-2-(dimethylamino)propan-1-one] | 0.250 mM
CNC(C)C(=O)c1ccccc1Cl (racemic) [2-CMC (1), (R,S)-1-(2-chlorophenyl)-2-(methylamino)propan-1-one] | 0.250 mM
CCN(CC)C(C)C(=O)c1ccc(Cl)cc1 (racemic) [4-Cl-DEC (16), (R,S)-1-(4-chlorophenyl)-2-(diethylamino)propan-1-one] | 0.063 mM
CCNC(C)C(=O)c1cccc(Cl)c1 (racemic) [3-CEC (5), (R,S)-1-(3-chlorophenyl)-2-(ethylamino)propan-1-one] | 0.250 mM
CCNC(C)C(=O)c1ccc(Cl)cc1 (racemic) [4-CEC (6), (R,S)-1-(4-chlorophenyl)-2-(ethylamino)propan-1-one] | 0.250 mM
CC(C(=O)c1ccc(Cl)cc1)N1CCCC1 (racemic) [4-Cl-PPP (11), (R,S)-1-(4-chlorophenyl)-2-(pyrrolidine-1-yl)propan-1-one] | 0.250 mM
CC(C)NC(C)C(=O)c1cccc(Cl)c1 (racemic) [3-CIC (17), (R,S)-1-(3-chlorophenyl)-2-(isopropylamino)propan-1-one] | 0.063 mM
CC(NC(C)(C)C)C(=O)c1cccc(Cl)c1 (racemic) [3-Cl-TBC (19), (R,S)-2-(tert-butylamino)-1-(3-chlorophenyl)propan-1-one] | 0.250 mM
CC(C(=O)c1cccc(Cl)c1)N(C)C (racemic) [3-CDC (13), (R,S)-1-(3-chlorophenyl)-2-(dimethylamino)propan-1-one] | 0.250 mM

Same assay, conditions: IC50, AChE inhibition, 0.03–2 mM, Ellman assay, Hill fit

SMILES | IC50
CNC(C)C(=O)c1cccc(Cl)c1 (racemic) [3-CMC (2), (R,S)-1-(3-chlorophenyl)-2-(methylamino)propan-1-one] | 800 µM
CC(C(=O)c1ccccc1Cl)N(C)C (racemic) [2-CDC (12), (R,S)-1-(2-chlorophenyl)-2-(dimethylamino)propan-1-one] | 700 µM
CNC(C)C(=O)c1ccccc1Cl (racemic) [2-CMC (1), (R,S)-1-(2-chlorophenyl)-2-(methylamino)propan-1-one] | 700 µM
CCN(CC)C(C)C(=O)c1ccc(Cl)cc1 (racemic) [4-Cl-DEC (16), (R,S)-1-(4-chlorophenyl)-2-(diethylamino)propan-1-one] | 100 µM
CCNC(C)C(=O)c1cccc(Cl)c1 (racemic) [3-CEC (5), (R,S)-1-(3-chlorophenyl)-2-(ethylamino)propan-1-one] | 800 µM
CCNC(C)C(=O)c1ccc(Cl)cc1 (racemic) [4-CEC (6), (R,S)-1-(4-chlorophenyl)-2-(ethylamino)propan-1-one] | 1200 µM
CC(C(=O)c1ccc(Cl)cc1)N1CCCC1 (racemic) [4-Cl-PPP (11), (R,S)-1-(4-chlorophenyl)-2-(pyrrolidine-1-yl)propan-1-one] | 500 µM
CC(C)NC(C)C(=O)c1cccc(Cl)c1 (racemic) [3-CIC (17), (R,S)-1-(3-chlorophenyl)-2-(isopropylamino)propan-1-one] | 200 µM
CC(C(=O)c1cccc(Cl)c1)N(C)C (racemic) [3-CDC (13), (R,S)-1-(3-chlorophenyl)-2-(dimethylamino)propan-1-one] | 900 µM
